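Tested at 5 concentrations; 48 h exposure; 96-well plates; endpoints linearly interpolated, else capped at highest concentration. Here, GI50 denotes the concentration required for 50% inhibition of growth.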 Active and inactive are the calls of the source. No stated cut-off is given here; in the data, active = GI50 up to about 1.1 µM and inactive = higher.
Key:
Experiment in all cases: NCI-60 cell line screen, 48 h
[1] = test system: NCI-H226
[2] = test system: PC-3
[3] = test system: RPMI-8226
[4] = test system: UO-31
[5] = test system: NCI/ADR-RES
[6] = test system: Hs-578T
[7] = test system: MDA-MB-435
[8] = test system: HCC 2998
[9] = test system: UACC-257
[10] = test system: SNB-19
[11] = test system: T47D
[12] = test system: KM12
[13] = test system: A498
[14] = test system: UACC-62
[15] = test system: RXF 393
[16] = test system: MCF7
[17] = test system: EKVX
[18] = test system: 786-0

Row | SMILES | GI50 [1] | GI50 [2] | GI50 [3] | GI50 [4] | GI50 [5] | GI50 [6] | GI50 [7] | GI50 [8] | GI50 [9] | GI50 [10] | GI50 [11] | GI50 [12] | GI50 [13] | GI50 [14] | GI50 [15] | GI50 [16] | GI50 [17] | GI50 [18]
1 | OCc1cn(C(c2ccccc2)(c2ccccc2)c2ccccc2)cn1 | > 100 µM (inactive) | 27.5 µM (inactive) | > 100 µM (inactive) | > 100 µM (inactive) | > 100 µM (inactive) | 33.7 µM (inactive) | > 100 µM (inactive) | > 100 µM (inactive) | > 100 µM (inactive) | > 100 µM (inactive) | > 100 µM (inactive) |  |  |  |  |  |  | 
2 | COc1ccc(CC2CCc3nc(N)nc(N)c3C2)cc1OC (stereo unspecified) | 12.1 µM (inactive) | 0.0716 µM (active) | 13.1 µM (inactive) | 13.8 µM (inactive) | 1.29 µM (inactive) | > 56.1 µM (inactive) | 1.41 µM (inactive) | 0.687 µM (active) | 15.3 µM (inactive) |  | 18.9 µM (inactive) | 1.28 µM (inactive) | 17.3 µM (inactive) | 0.0612 µM (active) | 0.0292 µM (active) | 1.15 µM (inactive) | 2.01 µM (inactive) | 0.0551 µM (active)
3 | Nc1ncc2c(n1)-c1ccccc1OC2N1CCCC1 (stereo unspecified) | > 100 µM (inactive) | > 100 µM (inactive) | > 100 µM (inactive) | 92 µM (inactive) | > 100 µM (inactive) | > 100 µM (inactive) | > 100 µM (inactive) |  | > 100 µM (inactive) | > 100 µM (inactive) |  | > 100 µM (inactive) |  | > 100 µM (inactive) | 94.8 µM (inactive) | > 100 µM (inactive) | 41.5 µM (inactive) | > 100 µM (inactive)
4 | COc1cccc(/C=C/C(=O)N2CC(CCl)c3c2cc(N)c2ccccc32)c1 (stereo unspecified) | 0.0137 µM (active) | 0.00284 µM (active) | 0.0507 µM (active) | 0.00171 µM (active) | 0.0731 µM (active) | 0.00968 µM (active) | 0.00319 µM (active) | 0.00242 µM (active) | 0.0193 µM (active) | 0.0059 µM (active) | 0.0034 µM (active) | 0.00434 µM (active) | 0.00665 µM (active) | 0.00298 µM (active) | 0.00132 µM (active) | 0.000238 µM (active) | 0.0142 µM (active) | 0.00106 µM (active)
